This series in a line: Nucleation induction time of aspirin on crosslinked polymer plates (non-porous and porous). The class given is physicochemical. The note with it: for average induction time τ from linear fit ln(P)=−t/τ: bulk polymerization. How it is done:
To further quantify the surface chemistry effect on nucleation kinetics, nucleation induction time distribution was measured with the API of interest. Nucleation induction time is an indicator of the surface nucleation activity because it can be shortened when the presence of a surface lowers the free energy barrier of nucleation. Due to the stochastic nature of nucleation events, a significant number of experiments were performed to obtain the probability distribution of nucleation induction time.
As an example of induction time measurements, polymer plates were prepared by UV polymerizing the mixture of a monomer and the crosslinker divinylbenzene held by Teflon holders. Subsequent drying under vacuum removed unreacted monomer molecules. Monomers used to synthesize polymer plates were 4-Acryloylmorpholine (AM), 4-Hydroxybutyl acrylate (HBA), 2-Carboxyethyl acrylate (CEA), and styrene (STY). AM, HBA, and CEA served as positive controls, whilst STY a negative control. Each polymer plate was inserted together with the Teflon holder vertically into the aspirin solution, and then the solution was quenched to initiate nucleation. The starting concentration and the nucleation temperature were chosen such that the supersaturation produced was high enough to give reasonably short induction time but low enough to suppress bulk nucleation. 48 vials of each polymer sample were tested simultaneously and the fraction of vials crystallized was recorded as a function of time to produce a plot of cumulative probability distribution of induction time, as shown in FIG. 4.
In FIG. 4: Cumulative probability distribution of nucleation induction time (a) and statistical analysis on the same data sets (b) obtained with polymers synthesized via bulk polymerization. Crystallization of aspirin was performed at supersaturation S=4.75. The linear regression in […] follows the formula ln(P)=−t/τ to obtain the average induction time τ. P is the probability for no crystallization event to occur within time t. […] The results of linear fitting are i) STY ln(P)=−t/243.9, R^2=0.987; ii) CEA ln(P)=−t/113.6, R^2=0.978; iii) HBA ln(P)=−t/38.2, R^2=0.995.
For example, by the PIPS method, the mixture of a monomer and the crosslinker divinylbenzene dissolved in ethanol was subjected to UV irradiation to initiate the polymerization. As the molecular weight of the polymer increases to a critical point, dynamic asymmetry between solvent molecules and the polymer lead to nucleation and growth of solvent-rich regions within the polymer matrix. Subsequent evaporation of the solvent during the vacuum drying leaves pores on the polymer films. One common feature shared by most porous surfaces is a raised edge surrounding the pore region, which may be a sign of eruptional behavior caused by fast solvent evaporation under vacuum. As determined by AFM, the pores found on polymer sample AM were around 100 nm in width and 4 nm in depth. Comparatively, polymer sample HBA carried pores about 50 nm in width and 5-8 nm in depth. The non-porous AM and HBA samples were synthesized by bulk polymerization method and used as a control and had relatively smooth surfaces despite a few impurities.

Consider one compound from patent US9138659B2, “Compositions, methods, and systems relating to controlled crystallization and/or nucleation of molecular species” (Massachusetts Institute of Technology, priority 2010, dated 2015).

For `CC(=O)Oc1ccccc1C(=O)O` [aspirin], the “average induction time τ from linear fit ln(P)=−t/τ” value is 113.6 (CEA polymer, S=4.75, FIG. 4, in h); 38.2 h (HBA polymer, S=4.75, FIG. 4); 243.9 (STY polymer, S=4.75, FIG. 4, in h). For the same compound, the “Average induction time τ” value runs as follows: (non-porous AM polymer, S = 4.75) 38.2 h; (non-porous HBA polymer, S = 4.75) 243.9 h; (porous AM polymer, S = 4.2) 8.8 h; (porous HBA polymer, S = 4.2) 54.6 h.
